Columns and labels:
[1] = target: T1, thioredoxin reductase 1 (TXNRD1) (Rattus norvegicus, UniProt O89049); test: DTNB reduction assay after […] h incubation; desalting shows irreversibility; format: biochemical
T1 construct: recombinant rat TXNRD1, wild-type
T1 sequence (O89049 1-499): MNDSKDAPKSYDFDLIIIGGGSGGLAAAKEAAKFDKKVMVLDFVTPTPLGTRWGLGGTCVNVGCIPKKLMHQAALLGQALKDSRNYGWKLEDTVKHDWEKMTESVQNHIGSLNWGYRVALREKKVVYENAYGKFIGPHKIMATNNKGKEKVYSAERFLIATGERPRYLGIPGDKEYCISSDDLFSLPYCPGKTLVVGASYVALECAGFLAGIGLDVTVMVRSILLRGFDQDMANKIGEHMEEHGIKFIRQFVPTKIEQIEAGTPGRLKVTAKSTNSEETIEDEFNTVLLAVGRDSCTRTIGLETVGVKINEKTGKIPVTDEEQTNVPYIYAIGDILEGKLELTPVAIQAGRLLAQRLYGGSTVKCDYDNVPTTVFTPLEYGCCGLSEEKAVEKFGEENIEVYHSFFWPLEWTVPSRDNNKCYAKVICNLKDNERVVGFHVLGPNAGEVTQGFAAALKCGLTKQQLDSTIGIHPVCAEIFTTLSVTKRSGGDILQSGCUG

[2] = target: T1, thioredoxin reductase 1 (TXNRD1); test: NADPH oxidation at […] nm with […] TXNRD1; format: biochemical

Row | SMILES | IC50 [1] [µM] | NADPH oxidation at 340 nm with 30 nM TXNRD1 [2]
1 | C[n+]1cc2c3c(ccc2c2ccc4cc5c(cc4c21)OCO5)OCO3 [San, sanguinarine] | 46.7 | –
2 | O=C1C=CC(=O)c2c(O)cccc21 [juglone, 5-Hydroxy-1,4-naphthoquinone] | – | juglone, a substrate of TXNRD1, exhibited strong NADPH oxidation
3 | COc1ccc2c(c[n+](C)c3c4cc5c(cc4ccc23)OCO5)c1OC [Che, chelerythrine] | 65.9 | –
